Data reported in patent US12358890B2, “Substituted tetrahydroisoquinoline derivative as a D1 positive allosteric modulator” (UCB Biopharma SRL, priority 2019, dated 2025).

How the values were obtained:
dopamine D1 receptor = target: T1, dopamine D1 receptor (Homo sapiens, UniProt P21728); assay: cAMP HTRF potentiation assay (in the presence of EC20 dopamine); format: cell-based; settings: for EC50: potentiation of cAMP levels with EC20 dopamine (1.1 nM), LMtk (Ltk-) mouse fibroblast cells expressing the dopamine D1 receptor; for Emax: with EC20 dopamine, dopamine maximum = 100%, read-out: Erel (relative efficacy, maximal % potentiation relative to dopamine maximal response)
T1 construct: host or cells: LMtk (Ltk-) mouse fibroblast cells
Source text: Assays have been designed to measure the effects of compounds in accordance with the present invention in the absence of dopamine (“activation assay”) and in the presence of dopamine (“potentiation assay”).
The potentiation assay measures the ability of compounds to increase the levels of cAMP produced by a low-threshold concentration of dopamine. The concentration of dopamine used ([EC20]) is designed to produce 20% stimulation compared to the maximal response (100%) seen with increasing the concentration of dopamine. To measure this potentiation increasing concentrations of the compound with the [EC20] of dopamine are incubated and the potentiation is measured as increases in cAMP production and concentration of compound which produces 50% of the potentiation of the cAMP levels is measured.
• a. METHODS D1 Cell Culture Cells were cultured at 37° C. in a humidified atmosphere of 5% CO2. Cells were grown in DMEM-F12+GlutaMAX™-I medium (GIBCO®, Invitrogen, Merelbeke, Belgium) containing 10% fetal bovine serum (BioWhittaker®, Lonza, Verviers, Belgium), 400 μg/mL Geneticin (GIBCO®), 100 IU/mL Penicillin and 100 IU/mL Streptomycin (Pen-Strep solution, BioWhittaker®). […] Using homogenous time-resolved fluoresence technology, the assay is based on competition between native cAMP produced by cells and cAMP labelled with the dye d2. The tracer binding is determined by an anti-cAMP antibody labeled with cryptate. The effects of the compound alone (agonism) was determined by performing the assay in the absence of dopamine, whilst the effect of the compound as a positive allosteric modulator (PAM) was determined in the presence of an EC20 concentration of dopamine. Cells (20,000 per well) are incubated in 384 plates for 1 hour at room temperature in a final volume of 20 μL HBSS (Lonza, with calcium, magnesium and HEPES buffer 20 mM, pH 7.4) containing: isobutyl methylxanthine (Sigma, 0.1 mM final), varying concentrations of test compound (typically 10^−9.5M to 10^−4.5M) in the presence and absence of dopamine (1.1 nM final). The reaction is then terminated and the cells lysed by adding the d2 detection reagent in lysis buffer (10 microL) and the cryptate reagent in lysis buffer (10 microl) according to manufacturer's instructions. This is then incubated for a further 60 min at room temperature and changes in HTRF fluorescent emission ratio determined according to manufacturer's instructions using an Envision plate reader (Perkin Elmer, Zaventem, Belgium) with laser excitation. All incubations were performed in duplicate and results were compared to a concentration-effect curve to dopamine. (10^−11M to 10^−6M). • c. […]

[1] = Intrinsic clearance in cryopreserved human hepatocyte suspension (Azamulin Assay); format: in vitro ADME
Method: The clearance is generally evaluated by using hepatocyte incubations and scaling calculations, assuming the main elimination pathway is metabolism, according to protocols described herein. The intrinsic clearance evaluated from hepatocytes is expressed in μl/min/10^6 cells.
To this aim, cryopreserved human microsomes (pooled donors) are divided on a 48 well collagen coated plate so that the final concentration is 0.25 mg/ml. The UCB compound is then added in the wells at 1 μM and 20 μM concentration in duplicate. After 30 minutes incubation, midazolam is added at 2.5 μM concentration. After 15 minutes, an aliquot is removed and placed into an equal volume of methanol containing internal standard. The samples are centrifuged at 2500 rpm at 4° C. for 20 min. An aliquot of supernatant is diluted with deionised water and levels of 1-hydroxymidazolam is quantified using generic LC MS/MS methods. The concentrations are compared to those obtained after midazolam incubation at the same concentration but without UCB compound pre-incubation. The results are expressed as % of inhibition. […]
Samples are analyzed by LC-MS-MS bioanalytical method to measure the concentration of UCB compound. The concentration versus time profile is fitted to determine the intrinsic clearance (Clint) expressed as μl/min/10^6 cells.

[2] = target: T2, human GABAA (α1β2γ2) channels (Homo sapiens, UniProt P14867+P18507+P47870); assay: Automated patch clamp studies on the GABAA receptor (IonFlux HT, CHO-K1 cells); format: cell-based; settings: compound at 10 μM, GABA 15 μM as agonist, read-out: percentage of inhibition of the GABAA receptor
T2 construct: expressed in transfected cells; host or cells: CHO-K1 cells

CYP3A4 = target: T3, CYP3A4 (Homo sapiens, UniProt P08684); assay: In vitro assessment of CYP3A4 inhibition potential using cryopreserved human microsomes (midazolam substrate); format: in vitro ADME; settings: cryopreserved human microsomes (pooled donors), probe midazolam 2.5 μM, read-out: percentage of inhibition of CYP3A4
T3 construct: cryopreserved human microsomes (pooled donors) are divided on a 48 well collagen coated plate; from tissue; host or cells: cryopreserved human microsomes (pooled donors)
Method: The objective of the human microsome assay is to characterize the inhibition potential of Compound of formula (I) by measuring the CYP3A4 activities after its co-incubation with midazolam, a specific CYP3A4 substrate.
To this aim, cryopreserved human microsomes (pooled donors) are divided on a 48 well collagen coated plate so that the final concentration is 0.25 mg/ml. The UCB compound is then added in the wells at 1 μM and 20 μM concentration in duplicate. After 30 minutes incubation, midazolam is added at 2.5 μM concentration. After 15 minutes, an aliquot is removed and placed into an equal volume of methanol containing internal standard. The samples are centrifuged at 2500 rpm at 4° C. for 20 min. An aliquot of supernatant is diluted with deionised water and levels of 1-hydroxymidazolam is quantified using generic LC MS/MS methods. The concentrations are compared to those obtained after midazolam incubation at the same concentration but without UCB compound pre-incubation. The results are expressed as % of inhibition. […] Azamulin Assay Cryopreserved human hepatocytes (pool of 20 donors, BSU batch from Celsis/IVT/Bioreclamation) were thawed accordingly the provider's information. Viability (trypan blue exclusion) was higher than 75%. […]

T1 sequence (P21728 whole entry, species assumed): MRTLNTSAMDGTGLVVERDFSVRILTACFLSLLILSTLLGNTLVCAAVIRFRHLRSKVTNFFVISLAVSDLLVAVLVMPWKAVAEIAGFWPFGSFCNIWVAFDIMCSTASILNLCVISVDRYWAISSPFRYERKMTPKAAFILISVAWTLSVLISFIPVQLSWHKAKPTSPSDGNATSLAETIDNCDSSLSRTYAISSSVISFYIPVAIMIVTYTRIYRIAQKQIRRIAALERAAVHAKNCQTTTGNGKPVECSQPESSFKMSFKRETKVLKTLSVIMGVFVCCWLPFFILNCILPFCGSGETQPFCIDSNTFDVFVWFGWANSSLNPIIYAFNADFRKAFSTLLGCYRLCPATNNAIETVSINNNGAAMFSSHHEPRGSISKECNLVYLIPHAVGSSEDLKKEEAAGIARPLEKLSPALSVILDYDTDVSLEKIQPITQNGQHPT
T2 sequence (P14867 28-456): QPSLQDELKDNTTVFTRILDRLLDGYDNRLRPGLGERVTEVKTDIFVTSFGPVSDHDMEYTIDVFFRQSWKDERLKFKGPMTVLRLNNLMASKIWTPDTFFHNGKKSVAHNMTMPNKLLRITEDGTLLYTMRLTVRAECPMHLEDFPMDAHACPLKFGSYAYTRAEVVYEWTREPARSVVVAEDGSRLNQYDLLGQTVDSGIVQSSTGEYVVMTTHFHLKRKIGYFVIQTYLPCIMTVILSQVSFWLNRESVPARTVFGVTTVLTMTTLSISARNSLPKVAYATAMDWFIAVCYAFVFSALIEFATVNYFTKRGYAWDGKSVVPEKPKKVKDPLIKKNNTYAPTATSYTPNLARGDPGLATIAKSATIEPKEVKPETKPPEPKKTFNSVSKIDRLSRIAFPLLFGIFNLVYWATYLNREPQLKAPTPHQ
T2 sequence (P47870 25-512 limits assumed): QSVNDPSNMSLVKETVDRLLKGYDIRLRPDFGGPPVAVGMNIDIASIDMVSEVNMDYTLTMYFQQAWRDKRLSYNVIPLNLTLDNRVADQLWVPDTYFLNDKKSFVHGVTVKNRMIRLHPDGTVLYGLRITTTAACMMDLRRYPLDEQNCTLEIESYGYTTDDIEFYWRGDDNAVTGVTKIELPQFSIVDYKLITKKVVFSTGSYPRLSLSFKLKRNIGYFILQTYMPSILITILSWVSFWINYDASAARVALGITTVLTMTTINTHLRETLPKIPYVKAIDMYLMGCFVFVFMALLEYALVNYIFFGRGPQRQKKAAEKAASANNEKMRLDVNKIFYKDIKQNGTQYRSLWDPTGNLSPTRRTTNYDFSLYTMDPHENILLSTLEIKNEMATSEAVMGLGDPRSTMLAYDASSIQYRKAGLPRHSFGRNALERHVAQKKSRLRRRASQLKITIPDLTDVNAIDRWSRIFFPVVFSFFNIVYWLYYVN
T2 sequence (P18507 40-475): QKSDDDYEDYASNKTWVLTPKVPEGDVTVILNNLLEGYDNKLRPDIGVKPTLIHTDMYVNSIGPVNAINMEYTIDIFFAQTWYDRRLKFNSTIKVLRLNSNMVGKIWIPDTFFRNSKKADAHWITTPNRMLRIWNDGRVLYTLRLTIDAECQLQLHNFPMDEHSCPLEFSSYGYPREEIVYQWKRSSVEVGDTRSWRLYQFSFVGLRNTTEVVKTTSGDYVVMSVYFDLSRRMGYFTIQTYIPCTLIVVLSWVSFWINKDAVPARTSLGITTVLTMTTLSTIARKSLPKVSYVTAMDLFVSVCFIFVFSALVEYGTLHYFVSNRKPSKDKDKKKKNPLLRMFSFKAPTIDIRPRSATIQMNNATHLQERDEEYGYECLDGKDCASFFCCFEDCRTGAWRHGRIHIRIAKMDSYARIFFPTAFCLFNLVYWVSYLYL
T3 sequence (P08684 whole entry): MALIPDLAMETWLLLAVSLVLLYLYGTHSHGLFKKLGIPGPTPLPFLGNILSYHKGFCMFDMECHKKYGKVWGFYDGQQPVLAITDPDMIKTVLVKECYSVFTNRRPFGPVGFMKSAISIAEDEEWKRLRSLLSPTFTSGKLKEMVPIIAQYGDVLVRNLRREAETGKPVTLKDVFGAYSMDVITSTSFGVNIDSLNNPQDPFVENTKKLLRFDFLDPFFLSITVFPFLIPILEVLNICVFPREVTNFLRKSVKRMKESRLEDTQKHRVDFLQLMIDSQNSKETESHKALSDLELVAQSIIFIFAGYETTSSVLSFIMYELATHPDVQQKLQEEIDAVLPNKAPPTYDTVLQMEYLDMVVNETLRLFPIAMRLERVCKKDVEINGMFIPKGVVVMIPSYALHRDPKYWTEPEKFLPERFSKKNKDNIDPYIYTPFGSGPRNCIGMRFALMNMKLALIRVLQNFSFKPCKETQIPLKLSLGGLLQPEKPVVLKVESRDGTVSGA

EC50 (dopamine D1 receptor) | Emax (dopamine D1 receptor) | hepatocyte CLint at 0.5 μM [1] | inhibition at 10 µM [2] | inhibition at 15 min, 1 μM (CYP3A4; compound at 1 μM) | inhibition at 15 min, 20 μM (CYP3A4; compound at 20 μM) | Compound
~200 nM | ~61% | ~9.2 µL/min/1e6 cells | ~20% |  |  | CC1c2cccc(C(C)(O)CF)c2CCN1C(=O)Cc1c(Cl)cnc(CO)c1Cl (stereo not shown) [(Ib)]
~126 nM | ~64% | ~8.8 µL/min/1e6 cells | ~13% | ~20% | ~28% | C[C@H]1c2cccc([C@](C)(O)CF)c2CCN1C(=O)Cc1c(Cl)cnc(CO)c1Cl [compound of formula (Ia), 2-[3,5-dichloro-2-(hydroxymethyl)-4-pyridyl]-1-[(1S)-5-[(1S)-2-fluoro-1-hydroxy-1-methyl-ethyl]-1-methyl-3,4-dihydro-1H-isoquinolin-2-yl]ethanone]
